Experimental data reported in patent publication US10538497B2, “Compounds as indoleamine 2,3-dioxygenase inhibitors” (Merck Sharp & Dohme Corp., priority 2015, dated 2020).

Assays:
[1] = target: T1, IDO1 (Homo sapiens (Human), UniProt P14902); assay: IDO1 Enzyme Assay; conditions: read-out: IDO1 Enzyme Assay, IC50; HIS-tagged recombinant IDO1, 40 nM
[2] = target: T1, IDO1; assay: IDO1 Cellular Assay in Frozen HEK293 Cells Transiently Transfected with Human IDO1; assay type: cell-based; conditions: HEK293 cells transiently transfected with human IDO1; read-out: IDO1 HEK293 Cell Assay, IC50
[3] = target: T1, IDO1; assay: IDO1 In Vivo Assay (hIDO1-CT26 murine model); set-up: species or system mouse; conditions: oral administration, 100 and 300 mg/kg
Protocol: hIDO1-CT26, a murine cell line generated in house to constitutively express the human IDO1 protein, was cultured in RPMI-1640+10% FBS+500 μM L-tryptophan in a standard cell incubator (37° C., 5% CO2). At 80% confluency, cells are rinsed in TrypLE, then incubated with TrypLE until fully detached (usually 1-5 min), resuspended in complete media, spun down (1000 rpm, 4° C., 5 min), and resuspended in phenol red-free RPMI-1640 before counting.
Two millions hIDO1-CT26 cells (20×10E6 cells/ml) in 50% phenol red-free RPMI-1640/50% Matrigel (growth factor reduced, GFR) are implanted subcutaneously in the right flank of anesthetized immunocompromised animals (CD-1 Nu/Nu, Charles River Labs). Ten days following implantation, tumors reach an average volume of 180 mm^3 at which point animals are randomized into treatment groups.
Animals are treated with IDO1 inhibitors by oral gavage (PO) every 12 h (BID dosing). Based on experimental design, animals will receive a minimum of 1 dose. At various times following the last dose, animals will be euthanized (CO2 asphyxiation), blood will be collected via cardiac puncture for plasma, and tumors will be resected. For plasma preparation, whole blood is transferred to plasma tube, and stored on ice prior to centrifugation. […]

T1 sequence (P14902 whole entry): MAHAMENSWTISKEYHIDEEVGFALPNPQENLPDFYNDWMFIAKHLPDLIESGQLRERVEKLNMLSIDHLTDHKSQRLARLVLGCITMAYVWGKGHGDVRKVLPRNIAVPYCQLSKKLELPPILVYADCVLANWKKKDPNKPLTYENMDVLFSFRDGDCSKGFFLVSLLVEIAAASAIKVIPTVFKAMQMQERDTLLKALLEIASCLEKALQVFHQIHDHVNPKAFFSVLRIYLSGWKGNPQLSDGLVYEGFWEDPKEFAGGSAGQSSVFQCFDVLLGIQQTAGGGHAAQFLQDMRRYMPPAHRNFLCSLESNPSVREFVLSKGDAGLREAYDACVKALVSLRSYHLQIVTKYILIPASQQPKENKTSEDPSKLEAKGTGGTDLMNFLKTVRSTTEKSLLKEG

Row | Structure (SMILES) | IC50 [1] [µM] | IC50 [2] [µM] | kynurenine levels in both plasma and tumor [3]
1 | NC(=O)NCCSc1nonc1/C(=N/O)Nc1ccc(F)c(Br)c1 [Example 46, N-(3-Bromo-4-fluorophenyl)-N′-hydroxy-4-((2-ureidoethyl)thio)-1,2,5-oxadiazole-3-carboximidamide] | 0.0339 | 0.0169 | dose-dependent reduction
2 | O=C(CSc1nonc1/C(=N/O)Nc1ccc(F)c(Br)c1)NC[C@@H](O)CO [Example 42, (R)-2-((4-(N-(3-bromo-4-fluorophenyl)-N′-hydroxycarbamimidoyl)-1,2,5-oxadiazol-3-yl)thio)-N-(2,3-dihydroxypropyl)acetamide] | 0.0477 | 0.0596 | dose-dependent reduction
